From patent US5069895A, “Methods for the treatment of alcohol intoxication and dependence” (priority 1989, dated 1991)
Read-outs that look alike come from different tables or passages of the source.

Legend:
[1] = tested on: mice; conditions: cited from earlier work; for effect on symptoms of ethanol intoxication: Dar et al. (1985); for intoxicating effect of ethanol: administration over a 10-day period to mice, Dar and Wooles (1986); for ethanol-induced ataxia: pretreated mice, Dar et al. (1987)
[2] = tested on: NG108-15 cells; test: acute effect of ethanol on endogenous cAMP levels; type: cell-based
Procedure: NG108-15 cells were grown in defined media as described (Gordon et al. (1986) supra.) to a final density of 12-20×10^6 cells per flask. […] Bars represent means ±SEM, n=4-9.

[3] = tested on: S49 wild type cells; test: agonist stimulation of cAMP levels over basal
Procedure: (§1) S49 wild type (WT) and adenosine transport mutants (80-2A6 and 160-D4) were grown in defined media (11, without phytohemagglutinin) with 1 U/ml ADA for at least 2 weeks. They were then grown in the presence or absence of 100 mM ethanol with or without 1.5 U/ml ADA for 48 hours. Accumulation of adenosine over 5 min was determined by incubating 1.0×10^7 cells/ml in sterilized PBS in the absence or presence of 200 mM ethanol. Extracellular adenosine concentrations were determined as in FIG. 2. Accumulation of adenosine over 24 hours in the absence or presence of 100 mM ethanol was determined as described by Green (1980) supra.. Assays for receptor-stimulated cAMP levels were carried out as in FIG. 3. […] Values represent means ±SEM. Number of determinations in indicated in parentheses.

[4] = tested on: C1300 neuroblastoma cells; conditions: endogenously released, overnight culture; cited from earlier work
[5] = tested on: NG108-15 cells; conditions: 200 mM ethanol, 10 min
Procedure: NG108-15 cells (5×10^6 cells/well) were incubated with 2 ml of PBS in the presence or absence of 200 mM ethanol for 10 min. Fluorescent derivatives of adenosine were prepared (Green (1980) supra.) and injected onto a reverse-phase HPLC column equilibrated with 1.2 mM KPO4, pH 5 and eluted with a 0-60% methanol gradient. Peak areas were compared with those of known amounts of 1,N^6 -ethenoadenosine.

[6] = tested on: S49 adenosine transport mutant 80-2A6
Procedure: as §1

[7] = tested on: S49 wild type cells
Procedure: as §1

[8] = tested on: S49 wild type cells; test: receptor-stimulated cAMP levels after chronic ethanol; type: cell-based; conditions: for activity at 100000 µM: wild type, 100 mM EtOH 48 hr
Procedure: as §1

[9] = tested on: S49 adenosine transport mutant 160-D4; test: cells; conditions: 48 h
Procedure: as §1

[10] = tested on: S49 adenosine transport mutant 80-2A6; test: cells; conditions: 48 h
Procedure: as §1

[11] = tested on: cultured lymphocytes; test: cells; conditions: for activation at 100000 µM: Homo sapiens, Lymphocyte, 5 min
Procedure: Lymphocytes from alcoholics and nonalcoholics were grown in culture for 6 days, and 100 mM ethanol was added for 24 hours. The cells were washed, preincubated for 5 minutes in the absence of ethanol, and then incubated in the absence and presence of 100 mM ethanol for 5 minutes. Extracellular adenosine was measured by HPLC (n=5-7 for alcoholics and nonalcoholics).

[12] = tested on: adenosine transport in freshly isolated lymphocytes; conditions: lymphocytes from alcoholics vs nonalcoholics, 200 mM ethanol 3 min, uptake at 10 seconds
Procedure: Uptake of [^3 H]-adenosine in freshly isolated lymphocytes from nonalcoholics and actively drinking alcoholics was also measured.

[13] = read-out: cAMP levels, 1 uM PGE1
[14] = read-out: cAMP levels, 100 uM PIA

In the case of `OCCN(CCO)c1nc(N2CCCCC2)c2nc(N(CCO)CCO)nc(N3CCCCC3)c2n1` [Dipyridamole], the “effect on symptoms of ethanol intoxication” value [1] is listed as “potentiating effect on certain symptoms of ethanol intoxication”.

For `CC(C)Cn1c(=O)n(C)c(=O)c2[nH]cnc21` [IBMX, isobutylmethylxanthine], the “effect on ethanol-induced increase in cAMP levels” value ([2]; co-incubation with ethanol 10 min, 1 U/ml ADA or isobutylmethylxanthine) is given as “completely blocked”, the “intoxicating effect of ethanol” value [1] is given as “increased” and the ethanol-induced ataxia [1] is given as “significant potentiation”.

`CCCCC[C@H](O)/C=C/[C@H]1[C@H](O)CC(=O)[C@@H]1CCCCCCC(=O)O` [PGE1] showed a maximal fold induction ([3]; Mus musculus, read-out: increase in cAMP levels over basal) of 13.5 ± 3.5.

In the case of `C[C@H](Cc1ccccc1)Nc1ncnc2c1ncn2[C@@H]1O[C@H](CO)[C@@H](O)[C@H]1O` [PIA], the “increase in cAMP levels over basal” value ([3]; maximally-effective concentration) is reported as 1.92±0.41 fold.

For `Nc1ncnc2c1ncn2[C@@H]1O[C@H](CO)[C@@H](O)[C@H]1O` [adenosine], the “concentration sufficient to desensitize adenosine receptor-dependent cAMP production” value [4] is listed as 10 to 20 nM.

In the case of `Cn1c(=O)c2c(ncn2C)n(C)c1=O` [caffeine], the “intoxicating effect of ethanol” value [1] is listed as “increased” and the ethanol-induced ataxia [1] is listed as “significant potentiation”.

For `CCO` [ethanol], the activation at 200000 µM ([2]; Homo sapiens, NG108-15, 10 min, 200 mM ethanol, 10 min, no added agonist, read-out: increase in intracellular cAMP concentration) was 60%, the extracellular adenosine concentration [5] was 37±1.2 nM/5×10^6 cells and the “extracellular adenosine, EtOH” value ([6]; 80-2A6, 5 min, EtOH 200 mM) was 0 nM/10^7 cells. The “extracellular adenosine, EtOH” value ([6]; 80-2A6, 24 hr, EtOH 100 mM) was 0 nM/10^7 cells, the “extracellular adenosine, EtOH” value ([7]; 5 min, EtOH 200 nM as printed) was 17.6 ± 3.6 nM/10^7 cells and the “extracellular adenosine, EtOH” value ([7]; 24 hr, EtOH 100 nM as printed) was 56.7 ± 10.2 nM/10^7 cells. For the same compound, the activity at 100000 µM [8, 13] was 36 ± 6%, the activity at 100000 µM [8, 14] was 65 ± 7% and the activity at 100000 µM [9, 13] was 98 ± 7%. For the same compound, the activity at 100000 µM [9, 14] was 94 ± 9%, the activity at 100000 µM [10, 13] was 82 ± 7% and the activity at 100000 µM [10, 14] was 115 ± 11%. It also gave an activation at 100000 µM ([11]; read-out: increase in extracellular adenosine on rechallenge, lymphocytes from alcoholics, after chronic ethanol, rechallenge 100 mM ethanol) of 73%, an activation at 100000 µM ([11]; read-out: increase in extracellular adenosine, lymphocytes from alcoholics, 100 mM ethanol 5 min) of 37% and an activation at 100000 µM ([11]; read-out: increase in extracellular adenosine, lymphocytes from nonalcoholics, 100 mM ethanol 5 min) of 17%. For the same compound, the “increase in extracellular adenosine on rechallenge” value ([11]; lymphocytes from nonalcoholics, after 100 mM ethanol 24 hours, rechallenge) was “did not increase extracellular adenosine” and the “inhibition of adenosine uptake” value [12] was “less inhibition by ethanol compared to uptake in cells from nonalcoholics”.

In the case of `OC[C@H]1O[C@@H](n2cnc3c(O)ncnc32)[C@H](O)[C@@H]1O` [inosine, reference compound], the “desensitization of the adenosine receptor” value ([8]; S49 wild type cells exposed 48 hr, data not shown) is reported as “did not desensitize the adenosine receptor”.

For `Cn1c(=O)c2[nH]cnc2n(C)c1=O` [theophylline], the “effect on symptoms of ethanol intoxication” value [1] is given as “ameliorated certain symptoms of intoxication while having no effect on others”, the “intoxicating effect of ethanol” value [1] is given as “appeared to have no effect” and the ethanol-induced ataxia [1] is given as “significant potentiation”.
